Reference: PMC10361251, “Absorption, tissue distribution, and excretion of glycycoumarin, a major bioactive coumarin from Chinese licorice (Glycyrrhiza uralensis Fisch)” (Frontiers in Pharmacology, 2023)
Where two headings read alike, the source gives them in different places. One block for each molecule: values may come before it.

How the values were obtained:
CYP2C8 = tested on: CYP2C8; parameters: method as in Li et al., 2017; Kuang et al., 2021; conditions: human liver microsomes; ref Li et al., 2017; Kuang et al., 2021; cited from earlier work
CYP2B6 = tested on: CYP2B6; parameters: method as in Li et al., 2017; Kuang et al., 2021; conditions: human liver microsomes; ref Li et al., 2017; Kuang et al., 2021; cited from earlier work
CYP2D6 = tested on: CYP2D6; parameters: method as in Qiao et al., 2014a; conditions: ref Qiao et al., 2014a; cited from earlier work
CYP1A2 = tested on: CYP1A2; parameters: method as in Li et al., 2017; Kuang et al., 2021; conditions: human liver microsomes; ref Li et al., 2017; Kuang et al., 2021; cited from earlier work
[1] = Biliary excretion of free and total GCM after i.v. administration; type: in vivo, rats; conditions: free GCM, i.v. 10 mg/kg; for dose excreted: Sprague-Dawley, rat, bile, iv, 10 mg/kg, read-out: Bile recovery
Description: Rats (n = 6) underwent bile fistula cannulation under anesthesia prior to bile sample collection. Bile samples from rats following i. v. GCM administration (10 mg/kg) were collected via cannula every 2 h over an 8 h collection period. Samples were collected from the catheter and delivered into acidified (0.1% HCl) centrifuge tubes. The rats were placed on thermostatic plates and kept under mild anesthesia throughout the experiment. The bile samples were diluted with saline and stored at −40°C until assayed.
(§1) Two aliquots of 50 μL prepared bile or urine samples were spiked with or without β-glucuronidase to determine the total or free GCM concentrations, as described above. The mixtures were incubated at 37°C for 40 min, and the mixtures were then spiked with 120 μL of ice-cold methanol containing IS to stop incubation. A 10 μL supernatant of each sample was used for the analysis.
(§2) An LC-MS/MS system comprising an Agilent 1260 HPLC system (Palo Alto, CA, United States) and an Applied Biosystems 4500 Q-Trap mass spectrometer equipped with an electrospray ionization source (Foster City, CA, United States) was used. Chromatographic separation was performed on a C18 column (100 × 4.6 mm, 3 μm, Thermo Fisher Scientific, Waltham, MA, United States) maintained at 30°C. The mobile phases comprised 0.1% (v/v) formic acid in water (A) and acetonitrile (B) at a flow rate of 0.4 mL/min. […] The total run time was 4 min. For mass spectrometry detection, the positive ion mode was used and the ion spray voltage was set at 5,500 V. The operating conditions were as follows: ion source temperature, 450°C; curtain gas, 20 psi; collision gas, medium. Ion source gases 1 and 2 were both at 60 psi. The collision energies were 37 and 42 V, and the declustering potentials for GCM and IS were 110 and 136 V, respectively. Quantification was performed by multiple reaction monitoring (MRM) of molecular ions and product ions at m/z 369.3 and 284.7 for GCM and 337.0 and 280.9 for IS (Supplementary Figure S1). Analyst® software (Version 1.6.3) was used for data acquisition and peak integration.

[2] = parameters: method as in Li et al., 2017; Kuang et al., 2021; conditions: human liver microsomes; ref Li et al., 2017; Kuang et al., 2021; cited from earlier work
[3] = Tissue distribution of GCM after intraperitoneal administration; type: in vivo; conditions: intraperitoneal 20 mg/kg, rats
Description: Twenty-five rats were randomly divided into five groups and administered 20 mg/kg GCM intraperitoneally. Samples of various tissues (heart, liver, spleen, lung, kidney, and brain) of a certain weight were collected from the rats at 0.5, 1, 2, 4, and 6 h following GCM administration. All tissues were then rinsed with normal saline to clean the blood, blotted with filter paper, and stored at −40°C until use. Blood samples were collected via the carotid artery at the specified time points, and plasma samples were harvested as described above.
Tissue samples were accurately weighed and homogenized in ice-cold saline (1:4, w/v) using a glass tissue homogenizer. Homogenized organs were centrifuged at 12,000 × g for 10 min to obtain clear supernatants; the supernatant was then transferred to a clean test tube kept at −40°C until assayed.
as §2

[4] = Urinary excretion of free and total GCM after i.v. administration; type: in vivo, rats; conditions: Sprague-Dawley, rat, urine, iv, 10 mg/kg, free GCM, i.v. 10 mg/kg
Description: Six rats were individually placed in metabolic cages and administered 10 mg/kg GCM by i. v. injection. Urine samples were collected over 24 h after administration in a urine reservoir containing 2 mL 0.1% HCl to avoid GCM degradation. Each urine reservoir was rinsed with 5 mL normal saline after collection. Every urine sample was diluted to 20 mL with normal saline and then stored at −40°C until assayed.
as §1, §2

CYP2C9 = conditions: human liver microsomes, cited from earlier work
[5] = In vitro stability of GCM in pH buffers and gastrointestinal content solutions; type: in vitro ADME, rats; conditions: 4 h at 37°C, 0.8 μg/mL
Description: The gastrointestinal tract solutions were collected as described previously ([Kong et al., 2013]). Briefly, rats were fasted overnight and sacrificed; the entire stomach, small intestine, and colon of each rat were removed, and their contents were rapidly collected on ice. Each of the contents was suspended in buffer solutions at pH 1.2, 6.8, and 7.4. Following mixing and centrifugation, the protein content of the gastrointestinal tract solutions was assayed using the BCA protein assay kit from Solarbio (Beijing, China) and then adjusted to 12 mg/mL for further study.
The stability of GCM in the gastrointestinal tract, including chemical stability and enzymatic stability, was assessed using an in vitro method as described previously ([Kong et al., 2013]). Briefly, GCM was spiked into different pH (1.2, 6.8, and 7.4) buffers and gastrointestinal content solutions containing the GCM at a final concentration of 0.8 μg/mL. The solutions were then mixed and incubated at 37°C. Aliquots of 200 μL samples were collected at 0.5, 1, 2, and 4 h, and 200 μL ice-cold methanol containing 200 ng/mL IS was added to stop the incubation. After centrifugation, 10 μL of the supernatant was used for analysis. Each experiment was performed in triplicate.

CYP2C19 = tested on: CYP2C19; parameters: method as in Li et al., 2017; Kuang et al., 2021; conditions: human liver microsomes; ref Li et al., 2017; Kuang et al., 2021; cited from earlier work
[6] = Plasma pharmacokinetics of free and total GCM after i.v. or oral administration (LC-MS/MS, with or without β-glucuronidase hydrolysis); type: in vivo, Sprague-Dawley rats
Excerpt: Male Sprague-Dawley rats (200 ± 20 g) were obtained from SJA Laboratory Animal Co. Ltd. (Hunan, China). All animals were kept under standard conditions of light, humidity, and temperature, and were allowed free access to a standard diet and water. All animal experiments were approved by the Animal Ethics Committee of Bijie City First People’s Hospital (BY[2019]-02-198). On the day before GCM administration, rats were subjected to a minor surgical procedure. Briefly, a polyurethane catheter (0.59 mm ID, 0.94 mm OD; Skillsmodel Limited, Beijing, China) was cannulated into the right jugular vein while under anesthesia induced using an intraperitoneal dose of chloral hydrate at 350 mg/kg. After surgery, the rats were individually placed in metabolism cages to allow recovery for at least 24 h. The rats were fasted overnight with free access to water before GCM administration.
All GCM dosing drugs were freshly prepared at a concentration of 10 mg/mL prior to the experiments. Briefly, GCM was dissolved in normal saline containing 5% (v/v) Solutol HS 15. The animals were randomly divided into three groups. The i. v. administration group was treated intravenously with […] by quick injection through the cannulated catheter, and approximately 0.2 mL saline with 20 units of heparin was injected to flush the catheter and prevent blood coagulation. The oral administration group was treated with […] in a single gastric gavage dose, and the intraperitoneal injection group received 20 mg/kg GCM through intraperitoneal injection.
Approximately 0.3 mL blood samples were collected via the cannula and placed into heparinized micro centrifuge (Eppendorf) tubes at multiple time-points (0.08, 0.25, 0.50, 1, 2, 3, 4, 5, 6, 7, 8, 10, 12, and 24 h) after GCM administration. The samples were centrifuged at 3000 × g for 5 min at 4°C for plasma separation; a 0.1 mL aliquot of each separated plasma sample was harvested and stored at −40°C until assessed.
Free (parent drug) and/or total (including parent and glucuronidated metabolites) GCM concentrations in rat plasma, tissues, urine, and bile were quantitatively assayed using LC-MS/MS before and after hydrolytic treatment with β-glucuronidase.
Aliquots (100 μL) of plasma samples were divided into two equal fractions for determining the free and total GCM concentrations, as previously described ([Chang et al., 2012]). Briefly, two aliquots of 50 μL plasma were incubated at 37°C with or without β-glucuronidase at a concentration of 1,200 units for total and free GCM, respectively. After 40 min of incubation, 10 μL of IS (1,000 ng/mL) was added to the mixtures followed by extraction with ethyl acetate. After centrifugation, the clear ethyl acetate layer was transferred and concentrated using a freeze-dry concentration method at 4°C. Subsequently, the remaining material was reconstituted in 200 μL of 90% (v/v) methanol. A 10 μL aliquot of the supernatant was injected into the LC-MS/MS system for analysis.
as §2, with “Quantification was performed by multiple reaction monitoring (MRM) of molecular ions and product ions at m/z 369.3 and 284.7 for GCM and 337.0 and 280.9 for IS (Supplementary Figure S1). Analyst® software (Version 1.6.3) was used for data acquisition and peak integration.” left out

CYP1A1 = tested on: CYP1A1; parameters: method as in Kim et al., 2016; conditions: human liver microsomes; ref Kim et al., 2016; cited from earlier work
[7] = parameters: method as in Wang et al., 2015; conditions: ref Wang et al., 2015; cited from earlier work
[8] = male, Sprague-Dawley, iv, free GCM, i.v. 10 mg/kg, rat plasma

- dose excreted ([1]; 0–2 h): 0.2 ± 0.12%
- dose excreted ([1]; 2–4 h): 0.08 ± 0.06%
- dose excreted ([1]; 4–6 h): 0.05 ± 0.04%
- Parent form excreted from bile over 0–8 h ([1]; 0–8 h): < 1 % of the delivered dose
- Blood-brain barrier crossing [3]: cannot cross the blood-brain barrier
- GCM in brain samples [3]: not detected
- GCM levels in most tissues by 6 h after dosing ([3]; 6 h): undetectable levels
- dose excreted ([4]; 0–12 h, read-out: Urine recovery): 0.28 ± 0.25%
- dose excreted ([4]; 0–24 h, read-out: Urinary recovery over 24 h): 0.39%
- dose excreted ([4]; 12–24 h, read-out: Urine recovery): 0.11 ± 0.1%
- Stability in colon content solutions [5]: unstable
- Stability in small intestine content solutions [5]: unstable
- Stability in stomach content solutions [5]: relatively stable
- Stability in pH buffer solutions ([5]; pH 1.2, 6.8 and 7.4): relatively stable
- Parent GCM in plasma collected after 6 h ([6]; free GCM, i.v. 10 mg/kg): almost undetectable
- CL/F ([6]; free GCM, i.v. 10 mg/kg, rats): 149 ± 33.3 mL/min/kg
- Vd, λz/F ([6]; free GCM, i.v. 10 mg/kg, rats, in L/kg): 9.25 ± 3.13
- Free GCM in plasma after 2 h ([6]; free GCM, oral 20 mg/kg): almost undetectable
- AUC0-∞ of conjugated (glucuronidated) GCM relative to free GCM ([6]; i.v. 10 mg/kg, rat plasma): approximately four-times higher
- AUC(0-inf) [6, 8]: 1170 ± 283 ng·h/mL
- AUC(0-t) [6, 8]: 1160 ± 284 ng·h/mL
- C0 [6, 8]: 5690 ± 1360 ng/mL
- half-life ([6]; male, Sprague-Dawley, iv, free GCM, i.v. 10 mg/kg, rat plasma, read-out: t1/2, λz (converted)): 42.6 ± 6.6 min
Compound: COc1c(CC=C(C)C)c(O)cc2oc(=O)c(-c3ccc(O)cc3O)cc12 [GCM, Glycycoumarin]
- CYP2C8 inhibition (CYP2C8): strongly inhibit
- CYP2B6 inhibition (CYP2B6): strongly inhibit
- CYP2D6 activity inhibition (CYP2D6): significantly inhibits
- CYP1A2 inhibition (CYP1A2): strongly inhibit
- UGT1A19 inhibition [2]: strongly inhibit
- Tissue concentration rank order [3]: liver, followed by that in the spleen, lung, heart, and kidney
- CYP2C9 inhibition (CYP2C9; ref Li et al., 2017, Kuang et al., 2021): strongly inhibit
- CYP2C19 inhibition (CYP2C19): strongly inhibit

Compound: COc1c(CC=C(C)C)c(O)cc2oc(=O)c3c4ccc(O)cc4oc3c12 [Glycyrol]
- CYP1A1 inhibition (CYP1A1): competitive inhibitory effects
- CYP2C9 inhibition (CYP2C9; ref Kim et al., 2016): competitive inhibitory effects
- Absorption into the blood after oral administration [7]: not absorbed into the blood
